Data on 25 compounds can be found in patent US20090048301A1 (IMCLONE SYSTEMS INCORPORATED, priority 2003, published 2009).

One assay deals with bovine tubulin. Description: In vitro tubulin polymerization assay (turbidity at 340 nm). The format is biochemical. The note with it: 10 μM compound, 30 minute data point, vs 1% DMSO control. An outline of the steps:
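Bovine tubulin (97%, <3% MAPs) at 3 mg/ml final in G-PEM pH 7 with 1 mM GTP and 5% glycerol, added cold to compound wells at 37° C (1% DMSO final). A340 read each minute for 30 min; percent inhibition from 30-min point versus DMSO control.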

Assay [1] concerns A431, human epidermoid carcinoma cells. In words: Cell cycle analysis (FACS), mitotic arrest in G2/M. The assay is classed as cell-based. The note with it: Homo sapiens, A-431, 24 h, read-out: FACS Assay: concentration required to achieve inhibition in FACS assay. An outline of the steps: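 A431 cells, 500,000/well at treatment, exposed to compounds at 0.01–1 μM final (0.1% DMSO) for 24 h. Ethanol-fixed cells RNase-treated (1 μg/ml, 37° C., 15 min), stained with propidium iodide (50 μg/ml, 30 min, RT). DNA ploidy by flow cytometry; mitotic arrest scored as G2/M accumulation.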

For `c1coc(CNc2ncccc2-c2nnc(Nc3ccc4c(c3)OCO4)[nH]2)c1` [Compound 40, {3-[5-(Benzo[1,3]dioxol-5-ylamino)-4H-[1,2,4]triazol-3-yl]-pyridin-2-yl}-furan-2-ylmethyl-amine], the “Tubulin Assay: percent inhibition at 10 μM based on 30 minute data” value (“Tubulin Assay: percent inhibition” below) in the assay with bovine tubulin is given as 71%. For the same compound, the minimal effective concentration in assay [1] was found to be 1 µM.
For `c1cnc(NCc2ccncc2)c(-c2nnc(Nc3ccc4c(c3)OCCO4)o2)c1` [Compound 206, {3-[5-(2,3-Dihydro-benzo[1,4]dioxin-6-ylamino)-[1,3,4]oxadiazol-2-yl]-pyridin-2-yl}-pyridin-4-ylmethyl-amine], the “Tubulin Assay: percent inhibition” value in the assay with bovine tubulin worked out at 94%. Besides, the minimal effective concentration in assay [1] turned out to be 0.025 µM.
For `COc1cc(Nc2ncccc2-c2nnc(Nc3cccc([N+](=O)[O-])c3)[nH]2)cc(OC)c1` [Compound 60a, (3,5-dimethoxy-phenyl)-{3-[5-(3-nitro-phenylamino)-4H-[1,2,4]triazol-3-yl]-pyridin-2-yl}-amine], in that order: 95% and 0.1 µM.
For `CS(=O)(=O)c1ccc(-c2nnc(-c3cccnc3NCC3COCCO3)[nH]2)cc1` (centres unmarked) [Compound 103, [1,4]Dioxan-2-ylmethyl-{3-[5-(4-methanesulfonyl-phenyl)-4H-[1,2,4]triazol-3-yl]-pyridin-2-yl}-amine], in that order: 80% and 1 µM.
For `COc1ccc(CNc2nnc(-c3cccnc3Nc3cc(OC)cc(OC)c3)[nH]2)cc1` [Compound 59, (3,5-Dimethoxy-phenyl)-{3-[5-(4-methoxy-benzylamino)-4H-[1,2,4]triazol-3-yl]-pyridin-2-yl}-amine] the same measures were 88% and 1 µM.
For `CS(=O)(=O)c1ccc(-c2nnc(-c3cccnc3NCc3ccc(F)c(F)c3)[nH]2)cc1` [Compound 102, (3,4-Difluoro-benzyl)-{3-[5-(4-methanesulfonyl-phenyl)-4H-[1,2,4]triazol-3-yl]-pyridin-2-yl}-amine], in the assay with bovine tubulin, the “Tubulin Assay: percent inhibition” value came out at 88%. In assay [1], the minimal effective concentration turned out to be 0.1 µM.
For `COc1ccc(CNc2ncccc2-c2nnc(Nc3ccc4c(c3)OCCO4)o2)cc1` [Compound 160, {3-[5-(2,3-Dihydro-benzo[1,4]dioxin-6-ylamino)-[1,3,4]oxadiazol-2-yl]-pyridin-2-yl}-(4-methoxy-benzyl)-amine], in that order: 89% and 0.1 µM.
For `c1coc(CNc2ncccc2-c2nnc(Nc3ccc4c(c3)OCO4)o2)c1` [Compound 163, {3-[5-(Benzo[1,3]dioxol-5-ylamino)-[1,3,4]oxadiazol-2-yl]-pyridin-2-yl}-furan-2-ylmethyl-amine], in the assay on bovine tubulin, the “Tubulin Assay: percent inhibition” value is recorded as 90%. The minimal effective concentration in assay [1] was 1 µM.
For `Nc1ccccc1-c1nnc(Nc2ccc3c(c2)OCCO3)o1` [Compound 241, [5-(2-Amino-phenyl)-[1,3,4]oxadiazol-2-yl]-(2,3-dihydro-benzo[1,4]dioxin-6-yl)-amine], in that order: 75% and 1 µM.
For `COc1cccc(Nc2nnc(-c3cccnc3NCc3ccncc3)[nH]2)c1` [Compound 39, {3-[5-(3-Methoxy-phenylamino)-4H-[1,2,4]triazol-3-yl]-pyridin-2-yl}-pyridin-4-ylmethyl-amine], in that order: 83% and 0.1 µM.
For `COc1cc(Nc2ncccc2-c2nnc(NCC3CCCO3)[nH]2)cc(OC)c1` (centres unmarked) [Compound 56, (3,5-Dimethoxy-phenyl)-(3-{5-[(tetrahydro-furan-2-ylmethyl)-amino]-4H-[1,2,4]triazol-3-yl}-pyridin-2-yl)-amine] the same measures were 97% and 1 µM.
On to `CS(=O)(=O)c1ccc(-c2nnc(-c3cccnc3Nc3cccc(S(N)(=O)=O)c3)[nH]2)cc1` [Compound 92, 3-{3-[5-(4-Methanesulfonyl-phenyl)-4H-[1,2,4]triazol-3-yl]-pyridin-2-ylamino}-benzenesulfonamide], for which, in the assay on bovine tubulin, the “Tubulin Assay: percent inhibition” value came out at 74%. The minimal effective concentration in assay [1] stood at 10 µM.
For `c1cnc(NCc2ccncc2)c(-c2nnc(Nc3ccc4c(c3)OCO4)[nH]2)c1` [Compound 38, {3-[5-(Benzo[1,3]dioxol-5-ylamino)-4H-[1,2,4]triazol-3-yl]-pyridin-2-yl}-pyridin-4-ylmethyl-amine] the same measures were 77% and 0.1 µM.
Turning to `COc1cccc(S(=O)(=O)Nc2ccccc2-c2nnc(Nc3ccc4c(c3)OCO4)o2)c1` [Compound 237, N-{2-[5-(Benzo[1,3]dioxol-5-ylamino)-[1,3,4]oxadiazol-2-yl]-phenyl}-3-methoxy-benzenesulfonamide], the “Tubulin Assay: percent inhibition” value with bovine tubulin is on record as 99%. In addition, the minimal effective concentration in assay [1] was 1 µM.
On to `c1cnc(Nc2ccc3c(c2)OCO3)c(-c2nnc(Nc3ccc4c(c3)OCO4)[nH]2)c1` [Compound 32, Benzo[1,3]dioxol-5-yl-{3-[5-(benzo[1,3]dioxol-5-ylamino)-4H-[1,2,4]triazol-3-yl]-pyridin-2-yl}-amine], for which, in the assay with bovine tubulin, the “Tubulin Assay: percent inhibition” value was determined as 54%. For the same compound, the minimal effective concentration in assay [1] came out at 10 µM.
For the compound `COc1ccc(CNc2ncccc2-c2nnc(Nc3ccc(OC)c(OC)c3)o2)cc1OC` [Compound 166, (3,4-Dimethoxy-benzyl)-{3-[5-(3,4-dimethoxy-phenylamino)-[1,3,4]oxadiazol-2-yl]-pyridin-2-yl}-amine], in the assay on bovine tubulin, the “Tubulin Assay: percent inhibition” value came out at 53%. The minimal effective concentration in assay [1] came out at 1 µM.
For `COc1cccc(Nc2ncc(-c3ccccc3NCc3ccc4c(c3)OCCO4)o2)c1` [Compound 250, (5-{2-[(2,3-Dihydro-benzo[1,4]dioxin-6-ylmethyl)-amino]-phenyl}-oxazol-2-yl)-(3-methoxy-phenyl)-amine] the same measures were 60% and 1 µM.
For `c1cnc(OCc2ccc3c(c2)OCO3)c(-c2nnc(Nc3ccc4c(c3)OCCO4)[nH]2)c1` [Compound 71, {5-[2-(Benzo[1,3]dioxol-5-ylmethoxy)-pyridin-3-yl]-4H-[1,2,4]triazol-3-yl}-(2,3-dihydro-benzo[1,4]dioxin-6-yl)-amine] the same measures were 83% and 0.1 µM.
For `Fc1ccc(CNc2ncccc2-c2nnc(-c3ccc4c(c3)OCO4)[nH]2)cc1F` [Compound 101, [3-(5-Benzo[1,3]dioxol-5-yl-4H-[1,2,4]triazol-3-yl)-pyridin-2-yl]-(3,4-difluoro-benzyl)-amine], in that order: 66% and 1 µM.
Turning to `Fc1ccc(CNc2ncccc2-c2nnc(Nc3ccc4c(c3)OCO4)o2)cc1F` [Compound 155, {3-[5-(Benzo[1,3]dioxol-5-ylamino)-[1,3,4]oxadiazol-2-yl]-pyridin-2-yl}-(3,4-difluoro-benzyl)-amine], the “Tubulin Assay: percent inhibition” value in the assay on bovine tubulin is on record as 91%. In addition, in assay [1], the minimal effective concentration came out at 1 µM.
As to `O=S(=O)(Nc1ccccc1-c1nnc(Nc2ccc3c(c2)OCCO3)[nH]1)c1cccc(OC(F)(F)F)c1` [Compound 127, N-{2-[5-(2,3-Dihydro-benzo[1,4]dioxin-6-ylamino)-4H-[1,2,4]triazol-3-yl]-phenyl}-3-trifluoromethoxy-benzenesulfonamide], the “Tubulin Assay: percent inhibition” value in the assay with bovine tubulin is 61%. In assay [1], the minimal effective concentration came out at 10 µM.
For `CS(=O)(=O)c1ccc(-c2nnc(-c3cccnc3NCc3ccc4c(c3)CCO4)[nH]2)cc1` [Compound 97, (2,3-Dihydro-benzofuran-5-ylmethyl)-{3-[5-(4-methanesulfonyl-phenyl)-4H-[1,2,4]triazol-3-yl]-pyridin-2-yl}-amine] the same measures were 77% and 1 µM.
On to `Fc1ccc(CNc2ncccc2-c2nnc(Nc3ccc4c(c3)OCO4)[nH]2)cc1F` [Compound 43, {3-[5-(Benzo[1,3]dioxol-5-ylamino)-4H-[1,2,4]triazol-3-yl]-pyridin-2-yl}-(3,4-difluoro-benzyl)-amine], for which the “Tubulin Assay: percent inhibition” value in the assay with bovine tubulin is reported as 84%. Besides, the minimal effective concentration in assay [1] stood at 1 µM.
For `COc1cc(Nc2ncccc2-c2nnc(-c3ccc(S(C)(=O)=O)cc3)[nH]2)cc(OC)c1` [Compound 74, (3,5-Dimethoxy-phenyl)-{3-[5-(4-methanesulfonyl-phenyl)-4H-[1,2,4]triazol-3-yl]-pyridin-2-yl}-amine], the “Tubulin Assay: percent inhibition” value in the assay on bovine tubulin turned out to be 87%. For the same compound, in assay [1], the minimal effective concentration worked out at 0.1 µM.
`c1ccc(-c2cnc(Nc3ccc4c(c3)OCCO4)o2)c(NCc2ccc3c(c2)OCO3)c1` [Compound 244, (5-{2-[(Benzo[1,3]dioxol-5-ylmethyl)-amino]-phenyl}-oxazol-2-yl)-(2,3-dihydro-benzo[1,4]dioxin-6-yl)-amine]: the “Tubulin Assay: percent inhibition” value in the assay with bovine tubulin was determined as 96%. Also, the minimal effective concentration in assay [1] was 1 µM.
